These results are taken from PubChem BioAssay AID1620 (Sanford-Burnham Center for Chemical Genomics, 2009).

Activity calls are given as the source filed them.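 The calls were made as follows: active = toxicity graded low, moderate or high, meaning less radioactive sulfur built into protein than in solvent-only controls; inactive = the rest.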

This data set relates to HeLa, 35S-Met/Cys protein incorporation toxicity, 3 h. Nature of the data set: HeLa cytotoxicity by protein synthesis, late-stage follow-up, cytotoxicity control for PMI inhibitor project, HeLa cells (AID 1620).
As for `O=c1c2c([N+](=O)[O-])cc([N+](=O)[O-])cc2sn1-c1ccccc1F`, the outcome is “active; low toxicity”. With `O=c1c2ccccc2sn1-c1cccc(Cl)c1` the entry was “active; highly toxic”; with `Cc1ccc(-n2sc3ccccc3c2=O)cc1S(=O)(=O)N1CCCCC1`, “active; moderate toxicity”; with `Cc1ccc(C)c(N2Cc3ccccc3C2=O)c1`, “active; low toxicity”. The result for `COc1ccc(-c2nc(=S)[nH][nH]2)cc1OC` reads “inactive; no toxicity”; that for `S=c1nc(-c2ccccc2Br)[nH][nH]1`, “inactive; no toxicity”. With `Cc1ccc(C)c(-n2sc3cc(F)ccc3c2=O)c1` the entry was “active; high toxicity”. `COc1cc(N=c2ssnc2Cl)cc(OC)c1`: the outcome was “inactive; no toxicity”. The result for `Clc1ccc(N=c2ssnc2Cl)cc1` reads “active; highly toxic”; that for `O=C(O)c1cccc(-n2sc3ccccc3c2=O)c1`, “active; moderate toxicity”. The result for `Cc1ccc(C)n1-c1nc(=S)[nH][nH]1` reads “inactive; no toxicity”; that for `CCSc1n[nH]c(=S)s1`, “inactive; no toxicity”; that for `Cc1ccc(C)c(-n2sc3ccccc3c2=O)c1`, “active; moderate toxicity”. In the case of `O=C(NCc1ccccc1)c1cccc(-n2sc3ccccc3c2=O)c1`, the outcome is “inactive; no toxicity”. As to `COc1ccc(OC)c(N=c2ssnc2Cl)c1`, the outcome was “inactive; no toxicity”. With `Clc1nssc1=Nc1ccc(Br)cc1` the entry was “active; high toxicity”; with `O=c1c2ccccc2sn1-c1cccc(S(=O)(=O)Nc2ccc(Cl)cc2)c1`, “active; moderate toxicity”. Take `O=c1c2ccccc2sn1-c1cccc(I)c1`: the outcome was “active; highly toxic”. `O=c1c2ccccc2sn1-c1nccs1`: the outcome was “inactive; no toxicity”.

With `O=C(O)CCn1cc(C=C2C(=O)NC(=S)NC2=O)c(-c2cccc(Br)c2)n1`, the outcome was “inactive; no toxicity”.

As for `CCOc1ccc(-c2nc(=S)[nH][nH]2)cc1`, the outcome was “inactive; no toxicity”.

For `CCc1cc(CC)c(N=c2ssnc2Cl)c(CC)c1`, the outcome is “active; highly toxic”.

As to `Cc1ccc(N=c2ssnc2Cl)cc1`, the outcome is “inactive; no toxicity”. The result for `CC(C)(C)c1ccc(N=c2ssnc2Cl)cc1` reads “active; moderate toxicity”.

For the molecule `Cc1[nH]n(-c2ccccc2)c(=S)c1C=Nc1cccc([N+](=O)[O-])c1`, the outcome was “inactive; no toxicity”. Consider `OCc1ccccc1N=c1ssnc1Cl`, for which the outcome is “inactive; no toxicity”. With `Clc1ccc(N=c2ssnc2Cl)cc1Cl` the entry was “active; highly toxic”. The result for `S=c1nc(C2COc3ccccc3O2)[nH][nH]1` (stereo not drawn) reads “inactive; no toxicity”; that for `Nc1ccccc1N=c1ssnc1Cl`, “inactive; no toxicity”; that for `Clc1cccc(N=c2ssnc2Cl)c1`, “active; low toxicity”. With `Clc1nss/c1=N\c1nncs1` the entry was “active; moderate toxicity”; with `S=c1nc(-c2cccc(Br)c2)[nH][nH]1`, “inactive; no toxicity”; with `Clc1nss/c1=N\c1nc2ccccc2s1`, “active; highly toxic”. In the case of `Cc1cccc(-n2sc3cc(F)ccc3c2=O)c1C`, the outcome is “active; moderate toxicity”. The result for `O=c1c2ccccc2sn1-c1cccc(C(F)(F)F)c1` reads “active; highly toxic”. With `O=[N+]([O-])c1ccc(N=c2ssnc2Cl)c([N+](=O)[O-])c1` the entry was “inactive; no toxicity”; with `COC(=O)c1cccc(-n2sc3ccccc3c2=O)c1`, “active; moderate toxicity”; with `O=C(O)c1ccccc1NS(=O)(=O)c1cccc(-n2sc3ccccc3c2=O)c1`, “active; high toxicity”. As to `Cc1cccc(N=c2ssnc2Cl)c1`, the outcome is “active; moderate toxicity”.

With `N#CC1=C2SCN(Cc3ccccc3)CN2C(=O)CC1c1ccc2c(c1)OCO2` (stereo not drawn), the outcome is “inactive; no toxicity”. With `O=c1c2ccccc2sn1-c1cc(S(=O)(=O)N2CCOCC2)ccc1N1CCOCC1` the entry was “active; moderate toxicity”; with `O=c1c2ccccc2sn1-c1ccc2ccccc2c1`, “active; high toxicity”.

Consider `CN(C)c1ccc(N=c2ssnc2Cl)cc1`, for which the outcome is “active; moderate toxicity”. With `Clc1ccc(Nc2ccccc2N=c2ssnc2Cl)cc1` the entry was “active; highly toxic”; with `Cc1ccc(C)c(-n2sc3ccc(F)cc3c2=O)c1`, “active; moderate toxicity”; with `COc1cc(N=c2ssnc2Cl)cc(OC)c1OC`, “inactive; no toxicity”.

With `COc1cccc(-n2sc3ccccc3c2=O)c1`, the outcome was “active; low toxicity”. Take `O=c1c2ccccc2sn1-c1ccccc1`: the outcome was “inactive; no toxicity”. The result for `O=c1c2ccc(F)cc2sn1-c1cc(Cl)ccc1Cl` reads “active; highly toxic”; that for `O=C1c2ccccc2SC1c1ccccc1` (stereo not drawn), “active; low toxicity”. For `O=c1c2ccccc2sn1-c1ccc(Cl)cc1`, the outcome is “active; highly toxic”. With `Oc1ccc(N=c2ssnc2Cl)cc1` the entry was “inactive; no toxicity”; with `O=c1c2ccccc2sn1-c1ccc(F)cc1`, “active; moderate toxicity”; with `Cc1c(Cl)cccc1-n1sc2cc([N+](=O)[O-])cc(OCC(F)(F)F)c2c1=O`, “active; low toxicity”. The result for `COc1ccc(-c2nc(=S)[nH][nH]2)cc1` reads “inactive; no toxicity”.

On to `Cc1cccc(-n2sc3ccccc3c2=O)c1`, for which the outcome is “active; moderate toxicity”.

Turning to `S=c1nc(-c2cccc(Cl)c2)[nH][nH]1`, the outcome was “inactive; no toxicity”. With `O=[N+]([O-])c1ccc(N=c2ssnc2Cl)c2ccccc12` the entry was “active; low toxicity”; with `Cc1ccc(N=c2ssnc2Cl)cc1C`, “active; moderate toxicity”; with `O=c1c2ccccc2sn1-c1ccc(Cl)c(S(=O)(=O)N2CCOCC2)c1`, “active; moderate toxicity”. On to `CN(C)S(=O)(=O)c1cccc(-n2sc3ccccc3c2=O)c1`, for which the outcome was “active; moderate toxicity”. With `CN(C)c1cccc(-n2sc3ccccc3c2=O)c1`, the outcome is “inactive; no toxicity”.

Take `COc1cc(N=c2ssnc2Cl)c(OC)cc1Cl`: the outcome is “active; low toxicity”. As to `O=c1c2c([N+](=O)[O-])cc([N+](=O)[O-])cc2sn1-c1ccc(F)cc1`, the outcome was “active; low toxicity”. Regarding `Cc1ccc(N=c2ssnc2Cl)nc1`, the outcome is “active; highly toxic”.

With `Cc1ccc(C)c(-n2[nH]c3ccccc3c2=O)c1`, the outcome is “inactive; no toxicity”. `CN(C)c1cccc(N=c2ssnc2Cl)c1`: the outcome was “active; highly toxic”. Turning to `Cc1ccc(N=c2ssnc2Cl)c([N+](=O)[O-])c1`, the outcome is “active; low toxicity”.

Consider `FC(F)(F)c1ccc(N=c2ssnc2Cl)cc1`, for which the outcome was “active; moderate toxicity”. The result for `COc1cc(-c2nc(=S)[nH][nH]2)cc(OC)c1OC` reads “inactive; no toxicity”; that for `Clc1nssc1=Nc1ccccc1`, “inactive; no toxicity”; that for `COc1ccc2c(=O)n(C3CCCC3)sc2c1`, “inactive; no toxicity”. With `O=c1c2ccccc2sn1-c1cc(S(=O)(=O)N2CCOCC2)ccc1N1CCCC1` the entry was “active; moderate toxicity”; with `COc1cc([N+](=O)[O-])ccc1N=c1ssnc1Cl`, “active; moderate toxicity”. Regarding `Cc1ccnc(-n2sc3ccccc3c2=O)n1`, the outcome was “inactive; no toxicity”. For the molecule `O=c1c2ccc(O)cc2sn1C1CCCC1`, the outcome is “inactive; no toxicity”. In the case of `COc1ccc(N=c2ssnc2Cl)cc1OC`, the outcome is “active; highly toxic”. Take `O=c1c2c([N+](=O)[O-])cc([N+](=O)[O-])cc2sn1-c1ccc(F)c(Cl)c1`: the outcome is “inactive; no toxicity”. The result for `Cc1ccc(N=c2ssnc2Cl)cc1[N+](=O)[O-]` reads “active; moderate toxicity”.

In the case of `O=c1c2cc(F)ccc2sn1-c1ccccc1`, the outcome was “active; moderate toxicity”. With `Clc1nss/c1=N\c1nccs1` the entry was “inactive; no toxicity”; with `Cc1ccc(C=Nn2c(-c3ccncc3)n[nH]c2=S)cc1`, “inactive; no toxicity”; with `N#Cc1ccc(N=c2ssnc2Cl)cc1`, “inactive; no toxicity”.
